From patent publication US5837483A, “Enzymatic method for producing N-formyl-α-L-aspartyl-L-phenylalanine methyl ester” (Holland Sweetener Company V.o.F., priority 1996, dated 1998)
Blank lines part the entries; values can stand above or below the compound they belong to. Residues, ends and D or L forms follow the SMILES beside them. *: point of attachment. For = O=C*

Legend:
[1] = Partition of F-APM between water-immiscible organic solvent and aqueous phase (distribution ratio, eq. 1); format: physicochemical; settings: for PF-APM / pKa: 40° C; for pKa: read-out: pKF-APM
Source text: The water-immiscible solvents of which distribution ratios (DF-APM) described by following equation (1) are 10^-2 or more at pH=6.0 are suitable for effective the extraction of the F-APM produced to the organic phase: [formula] wherein
PF-APM =(CF-APM)org /(CF-APM)aq (1a);
KF-APM ={(CF-APM.spsb.-)aq ×CH.spsb.+
(CF-APM)org : concentration of F-APM contained in the organic phase after the extraction of F-APM;
(CF-APM)aq : concentration of F-APM remained in the aqueous phase after the extraction of F-APM;
(CF-APM.spsb.-)aq : concentration of F-APM^- remained in the aqueous phase after the extraction of F-APM;
CH.spsb.+ : concentration of H^+ remained in the aqueous phase after the extraction of F-APM.
Above PF-APM and KF-APM were obtained by following partition model of F-APM described by following scheme 1. [drawing 1]
Furthermore, above equation (1) was obtained by relation described by following equation (3). [formula]
(§1) 10 ml of organic solvent saturated by water and 10 ml of aqueous solution saturated by organic solvent were entered into sample tube, and 50 mM of F-L-Asp was dissolved in said organic solvent saturated by water and 50 mM of F-APM was dissolved in said aqueous solution saturated by organic solvent.
As a value showing the ability of organic solvent to extract F-APM from aqueous phase, DF-ApM described by equation (1) were used.
(§2) Measurements of these PF-APM and PF-L-Asp were carried out at 40° C.
(§3) DF-APM values of many kinds of organic solvent are shown in Table 1 wherein methyl isobutyl ketone, n-butylformate and butyl acetate are shown as comparative examples, and DF-L-Asp values of many kinds of organic solvent are shown in Table 2.

[2] = Batchwise biphase condensation reaction: F-APM in aqueous and organic phase by HPLC; format: physicochemical; settings: tributyl phosphoric acid/aqueous enzyme solution pH=6.5, 40° C
Description: This example was carried out by batchwise operation in biphase system of aqueous phase and organic phase.
An enzyme aqueous solution of pH=6.5 containing 1.131 g/l of thermoase, 0.1M buffer agent (MES) and 0.01M CaCl2, and substrate tributyl phosphoric acid solution containing 88.15 mM of F-L-Asp and 120.97 mM of L-PM were prepared separately and were maintained at 40° C. Both 5 ml's of two solutions were mixed and the condensation reaction between F-L-Asp and L-PM was started. Concentrations of F-L-Asp, L-PM and F-APM were analyzed by HPLC.

[3] = relative to cane sugar; cited from earlier work
[4] = Partition of F-L-Asp between water-immiscible organic solvent and aqueous phase (distribution ratio, eq. 2); format: physicochemical; settings: for PF-A-Asp / pKa: 40° C
Source text: Moreover, organic solvents of which distribution ratios of F-L-Asp (DF-L-Asp) described by following equation (2) are 10^-4 or less at pH=6.0 are suitable for increase of conversion ratios to F-APM because large amount of F-L-Asp can be distributed in aqueous phase: [formula] wherein
PF-L-Asp =(CF-L-Asp)org /(CF-L-Asp)aq(2a);
KF-L-Asp1 ={(Cf-L-Asp.spsb.-)aq ×CH.spsb.+
KF-l=Asp2 ={(CF-L-Asp.spsb.2-)aq ×CH.spsb.+
}/(CF-L-Asp.spsb.-)aq (2c);
(CF-L-Asp)org : concentration of F-L-Asp contained in the organic phase after the extraction of F-APM;
(CF-L-Asp)aq : concentration of F-L-Asp remained in the aqueous phase after the extraction of F-APM;
(CF-L-Asp.spsb.-)aq : concentration of F-L-Asp^- remained in the aqueous phase after the extraction of F-APM;
CH.spsb.+ : concentration of H^+ remained in the aqueous phase after the extraction of F-APM;
(CF-L-Asp.spsb.2-)aq : concentration of F-L-Asp^2- remained in the aqueous phase after the extraction of F-APM.
PF-L-Asp, KF-L-Asp1 and KF-L-Asp2 were obtained by the partition model of F-L-Asp described by following scheme 2: [drawing 2]
Furthermore, above equation (2) was obtained by following equation (4): [formula]
as §1
As a value showing the ability to suppress transfer of F-L-Asp from aqueous phase to organic phase, DF-L-Asp described by equation (2) was used.
as §2, §3

[5] = butylacetate/water (comparative)
[6] = methyl ethyl ketone/water, pH = 5
[7] = methyl ethyl ketone/water, pH = 6
[8] = methyl ethyl ketone/water, pH = 7
[9] = methyl isobutyl ketone/water (comparative)
[10] = n-butylformate/water (comparative)
[11] = tri-butylphosphoric acid, n-amylalcohol, t-amylalcohol, 1-butanol, methyl ethyl ketone and isobutanol, pH=6.0
[12] = tri-butylphosphoric acid/water, pH = 5
[13] = tri-butylphosphoric acid/water, pH = 6
[14] = tri-butylphosphoric acid/water, pH = 7

- PF-APM ([1]; 1-butanol/water): 7.13
- pKa ([1]; 1-butanol/water): 4.17
- DF-APM ([1]; 1-butanol/water, pH = 5): 0.919
- DF-APM ([1]; 1-butanol/water, pH = 6): 0.101
- DF-APM ([1]; 1-butanol/water, pH = 7): 0.0105
- PF-APM [1, 5]: 0.47
- pKa [1, 5]: 4.02
- DF-APM ([1]; butylacetate/water (comparative), pH = 5): 0.045
- DF-APM ([1]; butylacetate/water (comparative), pH = 6): 0.0049
- DF-APM ([1]; butylacetate/water (comparative), pH = 7): 0.00049
- PF-APM ([1]; methyl ethyl ketone/water): 2.14
- pKa ([1]; methyl ethyl ketone/water): 4.61
- DF-APM [1, 6]: 0.556
- DF-APM [1, 7]: 0.087
- DF-APM [1, 8]: 0.0087
- PF-APM [1, 9]: 0.80
- pKa [1, 9]: 4.01
- DF-APM ([1]; methyl isobutyl ketone/water (comparative), pH = 5): 0.074
- DF-APM ([1]; methyl isobutyl ketone/water (comparative), pH = 6): 0.0080
- DF-APM ([1]; methyl isobutyl ketone/water (comparative), pH = 7): 0.00082
- PF-APM ([1]; n-amylalcohol/water): 3.70
- pKa ([1]; n-amylalcohol/water): 4.22
- DF-APM ([1]; n-amylalcohol/water, pH = 5): 0.527
- DF-APM ([1]; n-amylalcohol/water, pH = 6): 0.0604
- DF-APM ([1]; n-amylalcohol/water, pH = 7): 0.0061
- PF-APM [1, 10]: 0.64
- pKa [1, 10]: 4.17
- DF-APM ([1]; n-butylformate/water (comparative), pH = 5): 0.083
- DF-APM ([1]; n-butylformate/water (comparative), pH = 6): 0.0091
- DF-APM ([1]; n-butylformate/water (comparative), pH = 7): 0.0012
- PF-APM ([1]; t-amylalcohol/water): 6.89
- pKa ([1]; t-amylalcohol/water): 4.21
- DF-APM ([1]; t-amylalcohol/water, pH = 5): 0.866
- DF-APM ([1]; t-amylalcohol/water, pH = 6): 0.107
- DF-APM ([1]; t-amylalcohol/water, pH = 7): 0.0111
- DF-APM values at pH=6.0 [1, 11]: ≥ 1×10^-2
- PF-APM ([1]; tri-butylphosphoric acid/water): 13.0
- pKa ([1]; tri-butylphosphoric acid/water): 4.01
- DF-APM [1, 12]: 1.20
- DF-APM [1, 13]: 0.13
- DF-APM [1, 14]: 0.0133
SMILES: COC(=O)[C@H](Cc1ccccc1)NC(=O)[C@H](CC(=O)O)NC=O [F-APM, N-formyl-α-L-aspartyl-L-phenylalanine methyl ester] (For-Asp-Phe-OMe)
- transfer of F-APM produced to the organic phase [2]: all F-APM produced were transferred to the organic phase

SMILES: COC(=O)[C@H](Cc1ccccc1)NC(=O)[C@@H](N)CC(=O)O [aspartame, α-L-Aspartyl-L-phenylalanine methyl ester] (H-Asp-Phe-OMe)
- sweetness of cane sugar [3]: about 200 times

- PF-A-Asp ([4]; 1-butanol/water): 0.424
- pKa ([4]; 1-butanol/water, read-out: pKF-L-Asp1): 2.99
- pKa ([4]; 1-butanol/water, read-out: pKF-L-Asp2): 4.83
- DF-L-Asp ([4]; 1-butanol/water, pH = 5): 16.6 ×10^-4
- DF-L-Asp ([4]; 1-butanol/water, pH = 6): 0.262 ×10^-4
- DF-L-Asp ([4]; 1-butanol/water, pH = 7): 0.00278 ×10^-4
- PF-A-Asp ([4]; isobutanol/water): 0.356
- pKa ([4]; isobutanol/water, read-out: pKF-L-Asp1): 3.11
- pKa ([4]; isobutanol/water, read-out: pKF-L-Asp2): 4.44
- DF-L-Asp ([4]; isobutanol/water, pH = 5): 9.9 ×10^-4
- DF-L-Asp ([4]; isobutanol/water, pH = 6): 0.123 ×10^-4
- DF-L-Asp ([4]; isobutanol/water, pH = 7): 0.00125 ×10^-4
- PF-A-Asp ([4]; methyl ethyl ketone/water): 0.296
- pKa ([4]; methyl ethyl ketone/water, read-out: pKF-L-Asp1): 3.43
- pKa ([4]; methyl ethyl ketone/water, read-out: pKF-L-Asp2): 4.43
- DF-L-Asp [4, 6]: 16.0 ×10^-4
- DF-L-Asp [4, 7]: 0.201 ×10^-4
- DF-L-Asp [4, 8]: 0.00206 ×10^-4
- PF-A-Asp ([4]; n-amylalcohol/water): 0.166
- pKa ([4]; n-amylalcohol/water, read-out: pKF-L-Asp1): 2.95
- pKa ([4]; n-amylalcohol/water, read-out: pKF-L-Asp2): 4.17
- DF-L-Asp ([4]; n-amylalcohol/water, pH = 5): 1.9 ×10^-4
- DF-L-Asp ([4]; n-amylalcohol/water, pH = 6): 0.0216 ×10^-4
- DF-L-Asp ([4]; n-amylalcohol/water, pH = 7): 0.00021 ×10^-4
- PF-A-Asp ([4]; t-amylalcohol/water): 0.498
- pKa ([4]; t-amylalcohol/water, read-out: pKF-L-Asp1): 3.16
- pKa ([4]; t-amylalcohol/water, read-out: pKF-L-Asp2): 4.63
- DF-L-Asp ([4]; t-amylalcohol/water, pH = 5): 21.4 ×10^-4
- DF-L-Asp ([4]; t-amylalcohol/water, pH = 6): 0.294 ×10^-4
- DF-L-Asp ([4]; t-amylalcohol/water, pH = 7): 0.00305 ×10^-4
- pKa ([4]; tri-butyl phosphoric acid/water, read-out: pKF-L-Asp1): 3.18
- pKa ([4]; tri-butyl phosphoric acid/water, read-out: pKF-L-Asp2): 4.44
- DF-L-Asp values at pH=6.0 [4, 11]: ≤ 1×10^-4
- PF-A-Asp ([4]; tri-butylphosphoric acid/water): 0.558
- DF-L-Asp [4, 12]: 18.2 ×10^-4
- DF-L-Asp [4, 13]: 0.226 ×10^-4
- DF-L-Asp [4, 14]: 0.00231 ×10^-4
SMILES: O=CN[C@@H](CC(=O)O)C(=O)O [F-L-Asp, N-formyl-L-aspartic acid]
